Assay results: paper PMC7059030, “Design, Synthesis, Molecular Modeling Studies and Biological Evaluation of N′-Arylidene-6-(benzyloxy)-4-oxo-1,4-dihydroquinoline-3-carbohydrazide Derivatives as Novel Anti-HCV Agents” (Iranian Journal of Pharmaceutical Research : IJPR, 2019)
pEC50: −log10 of the molar value. Where two headings read alike, the source gives them in different places.

Experiments:
[1] = test system: HCV (JFH-1 strain) in Huh7.5 cells; test: Cell-based HCV replicon assay (RT-qPCR of HCV RNA in infected Huh7.5 cells); set-up: species or system hepatitis C virus; conditions: for pEC50: Huh7.5 cells infected with HCV (JFH-1), three days, HCV RNA by quantitative RT-PCR; for SI = CC50/EC50: selectivity index, CC50 (Huh-7.5, XTT) / EC50 (HCV replicon)
Procedure: The plasmid encoding the full genome of […] (JFH-1) strain (kindly provided by Wakita T) was used for in-vitro transcription to produce approximately high titer stocks of cell culture-produced virus (HCVcc) as previously described ([37]).
Huh7.5 cells were seeded into 48-well plates at a density of 3×10^5 cells per well with DMEM containing 10% FBS. After 24 h, huh7.5 cells were infected with HCV viral stock ([…]) for 3 h, at which point the infection was stopped and each well was washed three times by sterile PBS to removed non-penetrated virions and then the fresh medium was added to each well. Subsequently, the infected cells were treated with newly synthesized compounds at different concentrations and the sofosbuvir (Sigma-Aldrich, USA) as a positive control. After three days inoculation, the supernatant medium was collected and the viral RNA was extracted using viral QIAamp viral RNA mini kit (Qiagen, Düsseldorf, Germany), according to the manufacturer protocol. Then, the amount of HCV replicon RNA was determined using Quantitative RT-PCR assay by hepatitis C virus viral load kit (Gene Proof, Czech Republic, with CE, IVD) according to the manufacturer’s instruction.
The 50% effective concentration (EC50) was determined as the ratio of the normalized HCV RNA amount in treated samples relative to the controls (the samples without compound treatment) using GraphPad Prism5.0 software (GraphPad Software, San Diego, CA).
Target compounds 13-25 were evaluated in a cell-based viral replication surrogate assay known as the replicon system ([39]). We hypothesized that our quinolone analogues will inhibit NS5B, likely via binding to the active site. To test this hypothesis, FDA-approved active site binding NI, sofosbuvir, was used as a control compound. In parallel, compounds were also evaluated for their cytotoxic effects in the same cell line to ensure that the activity is completely devoid of cytotoxicity effects. The biological results are expressed as EC50, CC50 and SI (selectivity index, given by the CC50/EC50 ratio).

XTT cytotoxicity assay = format: cell-based; conditions: human, Huh-7.5 cells
Procedure: The cytotoxicity of compounds to Huh-7.5 cells was measured in parallel with the HCV replication assay based on the cleavage of the yellow tetrazolium salt XTT® (sodium 3-[1 (phenylaminocarbonyl)-3, 4-tetrazolium]-bis(4-methoxy-6-nitro)benzene sulfonic acid) to generate an orange formazan dye by metabolic function of alive and active cells. Cells were treated with various concentrations ([…]) of compounds and incubated for 72 hours.
The cell cytotoxicity was determined using XTT proliferation assay kit (Sigma-Aldrich) following the manufacturer’s instructions. The 50% cytotoxic concentration (CC50) was defined as the concentration of compound that reduced cell proliferation by 50%.

[2] = Hepatitis C virus, Huh7.5, 72 h, read-out: EC50
[3] = Hepatitis C virus, Huh7.5, 72 h

| SMILES | pEC50 [1, 2] | SI = CC50/EC50 [1] | CC50 at 72 h (XTT cytotoxicity assay) [µM] | melting point | pEC50 [1, 3] | pEC50 [1] |
| --- | --- | --- | --- | --- | --- | --- |
| CC(C)OC(=O)[C@H](C)N[P@](=O)(OC[C@H]1O[C@@H](n2ccc(=O)[nH]c2=O)[C@](C)(F)[C@@H]1O)Oc1ccccc1 [Sofosbuvir, sofosbuvir, reference compound] | 5.30 | > 100 | > 500 | – | – | – |
| O=C(NN=Cc1ccc(Cl)cc1)c1c[nH]c2ccc(OCc3ccccc3)cc2c1=O [Compound 16, 6-(Benzyloxy)-N′-(4-chlorobenzylidene)-4-oxo-1,4-dihydroquinoline-3-carbohydrazide] | < 3.70 | – | > 200 | 329 °C (dec.) | – | – |
| O=C(NN=Cc1cccc(Cl)c1)c1c[nH]c2ccc(OCc3ccccc3)cc2c1=O [Compound 21, 6-(Benzyloxy)-N′-(3-chlorobenzylidene)-4-oxo-1,4-dihydroquinoline-3-carbohydrazide] | 4.46 | 2.5 | 90 | 291 °C (dec.) | – | – |
| Cc1ccc(C=NNC(=O)c2c[nH]c3ccc(OCc4ccccc4)cc3c2=O)cc1 [Compound 17, 6-(Benzyloxy)-N′-(4-methylbenzylidene)-4-oxo-1,4-dihydroquinoline-3-carbohydrazide] | – | – | > 200 | 330 °C (dec.) | < 3.70 | – |
| O=C(NN=Cc1ccccc1F)c1c[nH]c2ccc(OCc3ccccc3)cc2c1=O [Compound 20, 6-(Benzyloxy)-N′-(2-fluorobenzylidene)-4-oxo-1,4-dihydroquinoline-3-carbohydrazide] | – | > 2 | > 200 | 324 °C (dec.) | 4.15 | 3.92 |
| Cc1ccccc1C=NNC(=O)c1c[nH]c2ccc(OCc3ccccc3)cc2c1=O [Compound 23, 6-(Benzyloxy)-N′-(2-methylbenzylidene)-4-oxo-1,4-dihydroquinoline-3-carbohydrazide] | 4.15 | 2.2 | 160 | 290 °C (dec.) | – | – |
| COc1ccccc1C=NNC(=O)c1c[nH]c2ccc(OCc3ccccc3)cc2c1=O [Compound 25, 6-(Benzyloxy)-N′-(2-methoxybenzylidene)-4-oxo-1,4-dihydroquinoline-3-carbohydrazide] | < 3.70 | – | > 200 | 299 °C (dec.) | – | – |
| COc1ccc(C=NNC(=O)c2c[nH]c3ccc(OCc4ccccc4)cc3c2=O)cc1 [Compound 18, 6-(Benzyloxy)-N′-(4-methoxybenzylidene)-4-oxo-1,4-dihydroquinoline-3-carbohydrazide] | – | > 2 | > 200 | 154 °C (dec.) | – | – |
| O=C(NN=Cc1ccc(F)cc1)c1c[nH]c2ccc(OCc3ccccc3)cc2c1=O [Compound 15, 6-(Benzyloxy)-N′-(4-fluorobenzylidene)-4-oxo-1,4-dihydroquinoline-3-carbohydrazide] | < 3.70 | – | > 200 | 305 °C (dec.) | – | – |
| O=C(NN=Cc1cccc(F)c1)c1c[nH]c2ccc(OCc3ccccc3)cc2c1=O [Compound 19, 6-(Benzyloxy)-N′-(3-fluorobenzylidene)-4-oxo-1,4-dihydroquinoline-3-carbohydrazide] | < 3.70 | – | > 200 | 305 °C (dec.) | – | – |
| CSc1ccc(C=NNC(=O)c2c[nH]c3ccc(OCc4ccccc4)cc3c2=O)cc1 [Compound 14, 6-(Benzyloxy)-N′-(4-(methylthio)benzylidene)-4-oxo-1,4-dihydroquinoline-3-carbohydrazide] | – | – | > 200 | 160 °C (dec.) | < 3.70 | – |
| Cc1cccc(C=NNC(=O)c2c[nH]c3ccc(OCc4ccccc4)cc3c2=O)c1 [Compound 22, 6-(Benzyloxy)-N′-(3-methylbenzylidene)-4-oxo-1,4-dihydroquinoline-3-carbohydrazide] | 4.35 | 2.2 | 100 | 310 °C (dec.) | – | – |
| COc1cccc(C=NNC(=O)c2c[nH]c3ccc(OCc4ccccc4)cc3c2=O)c1 [Compound 24, 6-(Benzyloxy)-N′-(3-methoxybenzylidene)-4-oxo-1,4-dihydroquinoline-3-carbohydrazide] | 3.92 | >1.8 | > 200 | 280 °C (dec.) | – | – |
| O=C(NN=Cc1ccccc1)c1c[nH]c2ccc(OCc3ccccc3)cc2c1=O [Compound 13, N′-Benzylidene-6-(benzyloxy)-4-oxo-1,4-dihydroquinoline-3-carbohydrazide] | < 3.70 | – | > 200 | 130 °C (dec.) | – | – |
